In US5214067A, “Fungicidal compositions and method” (Merck & Co., Inc., priority 1990, dated 1993):
In brackets after ≈: the same amount, converted by molar mass.

Columns and labels:
[1] = test system: C. albicans; assay: Synergistic and fungicidal effect: viable cell count (CFU/ml) of exponential phase C. albicans culture over time, drugs alone and in combination; type: cell-based, Candida albicans; conditions: β-lactone 3.1 μg/ml, pyranyl glycine ester 2 μg/ml, alone or together
Description: Synergistic and fungicidal effects were determined by treating exponential phase C. albicans culture with β-Lactone and pyranyl glycine ester at respective MIC level alone and in combination. Exponential phase cultures were prepared by diluting an overnight culture 1:50 or 1:1000 YNB/G. After incubating the diluted cells 7 or 17 hrs. at 37° C., the exponential phase cells were diluted in YNB/G to A600 =0.004u/ml to obtain 3000 cfu/ml.
10 microliters (μl) of β-lactone compound or pyranyl glycine ester compound prepared in DMSO was added to 1 ml of diluted exponential phase cells. The tubes were incubated at 37° C. at 250 rpm for about 24 hours. Periodically, aliquots were diluted in 0.9% saline and plated on Sabouraud dextrose agar plates to determine the number of cfu/ml.

[2] = test system: Candida albicans MY 1055; assay: Minimum inhibitory concentration (broth dilution) against Candida albicans MY 1055; type: cell-based; conditions: MY1055, C. albicans MY 1055, YNB/G, 37° C., 250 rpm, 17 hr
Description: 11-(3-hydroxymethyl-4-oxo-2oxetanyl)-7-methyl-2,4-undecadienoic acid (β-lactone compound), was solubilized in 100 percent dimethylsulfoxide (DMSO). Twofold dilutions were made with DMSO to obtain final drug concentrations in the broth dilution assay tubes ranging from […].
The Candida albicans, MY 1055 yeast culture, maintained in yeast nitrogen base/glucose (1/2 percent), YNB/G, was transferred to fresh medium and incubated 7 hours at 37° with shaking at 250 rpm. After incubation, each culture was diluted to A600 =0.0004 U/ml which was previously determined to be equal to 3000 cfu/ml (colony forming units per milliliter).
1 milliliter of YNB/G inoculated with yeast culture was added to sterile test tubes. The tubes were incubated at 250 rpm, 37° C. for 17 hr. The minimum inhibitory concentration (MIC) was recorded as the lowest concentration of drug […].
In a similar manner, the pyranyl ester was solubilized in dimethyl sulfoxide and dilution assay tubes from […] prepared. […] The MIC against C. C. albicans MY 1055 was determined to be 2 μg/ml.

[3] = time 2 hours, no drug 4.45 × 10^3
[4] = time 4.5 hours, no drug 1.75 × 10^4
[5] = time 7.5 hours, no drug 1.10 × 10^5
[6] = time 16.0 hours, no drug 5.35 × 10^6
[7] = time 20.5 hours, no drug 5.30 × 10^7
[8] = time 24.0 hours, no drug 7.65 × 10^7

| SMILES | Fungal Growth (CFU/ML) ([1]; time 0 hours (start), 37° C.) | Fungal Growth (CFU/ML) [1, 3] | Fungal Growth (CFU/ML) [1, 4] | Fungal Growth (CFU/ML) [1, 5] | Fungal Growth (CFU/ML) [1, 6] | Fungal Growth (CFU/ML) [1, 7] | Fungal Growth (CFU/ML) [1, 8] | MIC [2] [µg/mL] |
| --- | --- | --- | --- | --- | --- | --- | --- | --- |
| CC(=CC(=O)O)C=C(C)CC(C)CCCCC1OC(=O)C1CO (stereo not drawn) [β-Lactone Compound] | 2.70 × 10^3 CFU/ML | 5.95 × 10^3 CFU/ML | 4.10 × 10^3 CFU/ML | 4.55 × 10^3 CFU/ML | 1.70 × 10^3 CFU/ML | 1.50 × 10^3 CFU/ML | 1.50 × 10^3 CFU/ML | 3.1 (≈ 9.56 µM) |
| CCCC=CC=CC=C(C)C1OCC(C)C(OC)C1OC(=O)CN (stereo not shown) [Pyranyl Glycine Ester Compound, (2,3,4,5)-tetrahydro-4-methoxy-5-methyl-2-(1-methyl-1,3,5-nonatrienyl)-2-pyran-3-yl-glycine] | 2.70 × 10^3 CFU/ML | 6.05 × 10^3 CFU/ML | 9.60 × 10^3 CFU/ML | 1.40 × 10^4 CFU/ML | 1.00 × 10^5 CFU/ML | 1.02 × 10^6 CFU/ML | 1.37 × 10^6 CFU/ML | 2 (≈ 5.93 µM) |
